According to ChEMBL document CHEMBL5214910, “Rational Design of Dipicolylamine-Containing Carbazole Amphiphiles Combined with Zn2+ as Potent Broad-Spectrum Antibacterial Agents with a Membrane-Disruptive Mechanism” (J Med Chem, 2021):
Converted amounts (≈) assume the structure as drawn.

How the values were obtained:
[1] = test system: Pseudomonas aeruginosa; assay: Antibacterial activity Pseudomonas aeruginosa ATCC 9027 assessed as inhibition of bacterial growth incubated for 24 hrs by Muller hinton broth based dilution assay; type: functional
[2] = test system: Staphylococcus aureus; assay: Antibacterial activity against Methicillin-resistant Staphylococcus aureus N315 assessed as inhibition of bacterial growth incubated for 24 hrs by Muller hinton broth based dilution assay; type: functional
[3] = test system: Escherichia coli; assay: Antibacterial activity Escherichia coli ATCC 25922 assessed as inhibition of bacterial growth incubated for 24 hrs by Muller hinton broth based dilution assay; type: functional
[4] = test system: Acinetobacter baumannii; assay: Antibacterial activity against Acinetobacter baumannii R2889 assessed as inhIbition of bacterial growth incubated for 24 hrs by Muller hinton broth based dilution assay; type: functional
[5] = test system: Acinetobacter baumannii; assay: Antibacterial activity against Acinetobacter baumannii ATCC 17978 assessed as inhIbition of bacterial growth incubated for 24 hrs by Muller hinton broth based dilution assay; type: functional
[6] = test system: Staphylococcus aureus; assay: Antibacterial activity against Methicillin-resistant Staphylococcus aureus NCTC10442 assessed as inhibition of bacterial growth incubated for 24 hrs by Muller hinton broth based dilution assay; type: functional
[7] = test system: Staphylococcus aureus; assay: Antibacterial activity against Staphylococcus aureus ATCC 29213 assessed as inhibition of bacterial growth incubated for 24 hrs by Muller hinton broth based dilution assay; type: functional
[8] = Hemolytic activity in rabbit RBC incubated for 1 hrs by fluorescence based microplate reader assay; type: toxicity, cell-based, Oryctolagus cuniculus, Erythrocyte; conditions: rabbit red blood cells (erythrocytes)
[9] = test system: Staphylococcus aureus; assay: Induction of drug resistance in Staphylococcus aureus ATCC 29213 assessed as fold change in MIC incubated for 17 days; type: functional; conditions: time 17.0 day
[10] = test system: Escherichia coli; assay: Antibacterial activity Escherichia coli ATCC 25922 assessed as inhibition of bacterial growth incubated for 24 hrs in the presence of 12.5 ug/mL Zn2+ by Muller hinton broth based dilution assay; type: functional
[11] = Hemolytic activity in rabbit RBC incubated for 1 hrs in the presence of 12.5 ug/mL Zn2+ by fluorescence based microplate reader assay; type: toxicity, cell-based, Oryctolagus cuniculus, Erythrocyte; conditions: rabbit red blood cells (erythrocytes)
[12] = test system: Acinetobacter baumannii; assay: Antibacterial activity against Acinetobacter baumannii R2889 assessed as inhIbition of bacterial growth incubated for 24 hrs in the presence of 12.5 ug/mL Zn2+ by Muller hinton broth based dilution assay; type: functional
[13] = test system: Pseudomonas aeruginosa; assay: Antibacterial activity Pseudomonas aeruginosa ATCC 9027 assessed as inhibition of bacterial growth incubated for 24 hrs in the presence of 12.5 ug/mL Zn2+ by Muller hinton broth based dilution assay; type: functional
[14] = test system: Staphylococcus aureus; assay: Antibacterial activity against Methicillin-resistant Staphylococcus aureus NCTC10442 assessed as inhibition of bacterial growth incubated for 24 hrs in the presence of 12.5 ug/mL Zn2+ by Muller hinton broth based dilution assay; type: functional
[15] = test system: Acinetobacter baumannii; assay: Antibacterial activity against Acinetobacter baumannii ATCC 17978 assessed as inhIbition of bacterial growth incubated for 24 hrs in the presence of 12.5 ug/mL Zn2+ by Muller hinton broth based dilution assay; type: functional
[16] = test system: Staphylococcus aureus; assay: Antibacterial activity against Staphylococcus aureus ATCC 29213 assessed as inhibition of bacterial growth incubated for 24 hrs in the presence of 12.5 ug/mL Zn2+ by Muller hinton broth based dilution assay; type: functional
[17] = test system: Staphylococcus aureus; assay: Antibacterial activity against Methicillin-resistant Staphylococcus aureus N315 assessed as inhibition of bacterial growth incubated for 24 hrs in the presence of 12.5 ug/mL Zn2+ by Muller hinton broth based dilution assay; type: functional
[18] = test system: Staphylococcus aureus; assay: Antibacterial activity against Staphylococcus aureus ATCC 29213 in cyclophosphamide immunosuppressed C57BL/6 mouse model of bacterial keratitis assessed as log reduction in viable bacterial count in infected cornea at 5 % pre-infected with bacteria for 24 hrs followed by topical administration of compound four times a day for 3 days; type: functional; conditions: route top, time 3 day
[19] = test system: Escherichia coli; assay: Induction of drug resistance in Escherichia coli ATCC 25922 assessed as fold change in MIC incubated for 15 days; type: functional; conditions: time 15.0 day

Compound | MIC [1] | MIC [2] | MIC [3] | MIC [4] | MIC [5] | MIC [6] | MIC [7] | HC50 at 1 h [8] | fold change (FC) [9] | MIC [10] | HC50 at 1 h [11] | MIC [12] | MIC [13] | MIC [14] | MIC [15] | MIC [16] | MIC [17] | log(activity) [18] | fold change (FC) [19]
FC(F)(F)CCCn1c2ccccc2c2c(OCC3CO3)cccc21 (stereo unspecified) | > 50 µg/mL | > 50 µg/mL | > 50 µg/mL | > 50 µg/mL | > 50 µg/mL | > 50 µg/mL | > 50 µg/mL | – | – | – | – | – | – | – | – | – | – | – | –
CCCCCn1c2ccccc2c2c(OCC3CO3)cccc21 (stereo unspecified) | > 50 µg/mL | > 50 µg/mL | > 50 µg/mL | > 50 µg/mL | > 50 µg/mL | > 50 µg/mL | > 50 µg/mL | > 200 µg/mL | – | – | – | – | – | – | – | – | – | – | –
CCn1cc(C(=O)O)c(=O)c2cc(F)c(N3CCNCC3)cc21 | – | – | – | – | – | – | – | – | 32 | – | – | – | – | – | – | – | – | – | –
CCCn1c2ccccc2c2c(OCC3CO3)cccc21 (stereo unspecified) | > 50 µg/mL | > 50 µg/mL | > 50 µg/mL | > 50 µg/mL | > 50 µg/mL | > 50 µg/mL | > 50 µg/mL | > 200 µg/mL | – | – | – | – | – | – | – | – | – | – | –
CCCCCCCn1c2ccccc2c2c(OCC3CO3)cccc21 (stereo unspecified) | > 50 µg/mL | > 50 µg/mL | > 50 µg/mL | > 50 µg/mL | > 50 µg/mL | > 50 µg/mL | > 50 µg/mL | > 200 µg/mL | – | – | – | – | – | – | – | – | – | – | –
CCCCCCCCCn1c2ccccc2c2c(OCC(O)CN(Cc3ccccn3)Cc3ccccn3)cccc21 (stereo unspecified) | > 50 µg/mL | 0.78 µg/mL (≈ 1.38 µM) | > 50 µg/mL | > 50 µg/mL | > 50 µg/mL | 6.25 µg/mL (≈ 11.1 µM) | 3.12 µg/mL (≈ 5.53 µM) | > 200 µg/mL | – | > 50 µg/mL | > 200 µg/mL | > 50 µg/mL | > 50 µg/mL | 6.25 µg/mL | 12.5 µg/mL | 3.12 µg/mL | 0.78 µg/mL | – | –
CCCn1c2ccccc2c2c(OCC(O)CN(Cc3ccccn3)Cc3ccccn3)cccc21 (stereo unspecified) | > 50 µg/mL | 1.56 µg/mL (≈ 3.25 µM) | 12.5 µg/mL (≈ 26 µM) | 6.25 µg/mL (≈ 13 µM) | 6.25 µg/mL (≈ 13 µM) | 3.12 µg/mL (≈ 6.5 µM) | 3.12 µg/mL (≈ 6.5 µM) | > 200 µg/mL | – | 6.25 µg/mL | > 200 µg/mL | 6.25 µg/mL | 6.25 µg/mL | 1.56 µg/mL | 3.12 µg/mL | 0.78 µg/mL | 0.78 µg/mL | – | –
CCCCCCCn1c2ccccc2c2c(OCC(O)CN(Cc3ccccn3)Cc3ccccn3)cccc21 (stereo unspecified) | > 50 µg/mL | 1.56 µg/mL (≈ 2.91 µM) | > 50 µg/mL | 25 µg/mL (≈ 46.6 µM) | > 50 µg/mL | 1.56 µg/mL (≈ 2.91 µM) | 1.56 µg/mL (≈ 2.91 µM) | > 200 µg/mL | – | 3.12 µg/mL | > 200 µg/mL | 25 µg/mL | > 50 µg/mL | 1.56 µg/mL | > 50 µg/mL | 1.56 µg/mL | 0.78 µg/mL | – | –
Cn1c2ccccc2c2c(OCC(O)CN(Cc3ccccn3)Cc3ccccn3)cccc21 (stereo unspecified) | > 50 µg/mL | 6.25 µg/mL (≈ 13.8 µM) | 50 µg/mL (≈ 110 µM) | 25 µg/mL (≈ 55.2 µM) | 12.5 µg/mL (≈ 27.6 µM) | 12.5 µg/mL (≈ 27.6 µM) | 12.5 µg/mL (≈ 27.6 µM) | > 200 µg/mL | – | 50 µg/mL | > 200 µg/mL | 25 µg/mL | 12.5 µg/mL | 6.25 µg/mL | 12.5 µg/mL | 3.12 µg/mL | 1.56 µg/mL | – | –
CN[C@H](CC(C)C)C(=O)N[C@H]1C(=O)N[C@@H](CC(N)=O)C(=O)N[C@H]2C(=O)N[C@H]3C(=O)N[C@H](C(=O)N[C@H](C(=O)O)c4cc(O)cc(O)c4-c4cc3ccc4O)[C@H](O)c3ccc(c(Cl)c3)Oc3cc2cc(c3O[C@@H]2O[C@H](CO)[C@@H](O)[C@H](O)[C@H]2O[C@H]2C[C@](C)(N)[C@H](O)[C@H](C)O2)Oc2ccc(cc2Cl)[C@H]1O [VANCOMYCIN] | > 50 µg/mL | 1.56 µg/mL (≈ 1.08 µM) | > 50 µg/mL | > 50 µg/mL | 50 µg/mL (≈ 34.5 µM) | 1.56 µg/mL (≈ 1.08 µM) | 0.78 µg/mL (≈ 0.538 µM) | – | – | > 50 µg/mL | – | > 50 µg/mL | > 50 µg/mL | 1.56 µg/mL | 50 µg/mL | 0.78 µg/mL | 1.56 µg/mL | 5.4 | –
CC1(C)S[C@@H]2[C@H](NC(=O)[C@H](N)c3ccc(O)cc3)C(=O)N2[C@H]1C(=O)O | – | – | – | – | – | – | – | – | – | – | – | – | – | – | – | – | – | – | 16
CCN(CC)CC(O)COc1cccc2c1c1ccccc1n2CC=C(C)C (stereo unspecified) | > 50 µg/mL | 6.25 µg/mL (≈ 16.4 µM) | > 50 µg/mL | 25 µg/mL (≈ 65.7 µM) | 50 µg/mL (≈ 131 µM) | 6.25 µg/mL (≈ 16.4 µM) | 6.25 µg/mL (≈ 16.4 µM) | – | – | 50 µg/mL | – | 25 µg/mL | > 50 µg/mL | 6.25 µg/mL | 50 µg/mL | 6.25 µg/mL | 6.25 µg/mL | – | –
